In US20230416232A1, “PYRIMIDINE COMPOUNDS, COMPOSITIONS, AND MEDICINAL APPLICATIONS THEREOF” (Blueprint Medicines Corporation, priority 2020, published 2023) one finds IC50 and GI50 data, which are given here for 22 compounds.

One may read the IC50 as the point on the concentration scale where inhibition reaches its midpoint.

Holding throughout (assay type): cell-based
In assay [1] the test system is A431 cells. Nature of the assay: Cellular proliferation (Alamar Blue) assay, A431 cells. To be noted: Homo sapiens, A-431, 72 h, A431 cells; 72 hr; Alamar Blue; read-out: A431 IC50. Here is the method:
(§1) • 1. Seed cells at 5000 for A431 and 15,000 cells for Ba/F3 in 100 μL/well in complete media (for A431: DMEM with 10% FBS and for Ba/F3 cells: RPMI with 10% FBS) in 96-well tissue culture plate. Leave outer wells without cells for background measurements. Incubate at 37 degree Celsius in 5% CO2 humidified incubator for 16-18 hours. • 2. Add 0.025 ml of 5X concentration compound dilution or DMSO control. Final compound concentration range is 10-0.0005 μM prepared in 3-fold serial dilutions. Incubate for 72 hr at 37 degree Celsius in 5% CO2 humidified incubator. • 3. Add 0.0125 ml Alamar Blue™ reagent to each well with multi-channel pipette and tap gently on each side of the plate to mix. Incubate for 3 hours at 37 degree Celsius in 5% CO2 humidified incubator. • 4. […] Data analysis was performed using XLfit 5.5.0.5.

Assay [2] concerns the target HER2 (A775_G776insYVMA) expressing Ba/F3 stable cell line (Homo sapiens, UniProt P04626, DUP772-775, cells depend on it). Nature of the assay: Cellular proliferation (Alamar Blue) assay, HER2 (A775_G776insYVMA) Ba/F3. To be noted: HER2 (A775_G776insYVMA) Ba/F3 cells; 72 hr; Alamar Blue; read-out: YVMA IC50. Here is the method:
(§2) Cell line details: • 1. EGFR(D770_N771insSVD) expressing Ba/F3 stable cell line • 2. EGFR (A767_dupASV) expressing Ba/F3 stable cell line • 3. A431 cells • 4. EGFR (H773insNPH) expressing Ba/F3 stable cell line • 5. HER2 (A775_G776insYVMA) expressing Ba/F3 stable cell line
as §1

Assay [3] deals with EGFR (A767_dupASV) expressing Ba/F3 stable cell line (Homo sapiens, UniProt P00533, DUP767-769, cells depend on it). The experiment in a line: Cellular proliferation (Alamar Blue) assay, EGFR (A767_dupASV) Ba/F3. The conditions noted are these: 72 hr, read-out: A767 IC50. Here is the method:
as §2, §1
(In general: The colour change of resazurin is a common sign of viable cells or microbes.)

Assay [4] deals with EGFR(D770_N771insSVD) expressing Ba/F3 stable cell line (Homo sapiens, UniProt P00533, DUP768-770, cells depend on it). The experiment in a line: Cellular proliferation (Alamar Blue) assay, EGFR(D770_N771insSVD) Ba/F3. The conditions noted are these: 72 hr, read-out: D770 IC50. Here is the method: as §2, §1

Counter-ions that a name gives are not always drawn.

Chain of HER2 (A775_G776insYVMA) expressing Ba/F3 stable cell line (P04626 with tags, fused parts or gaps DUP772-775): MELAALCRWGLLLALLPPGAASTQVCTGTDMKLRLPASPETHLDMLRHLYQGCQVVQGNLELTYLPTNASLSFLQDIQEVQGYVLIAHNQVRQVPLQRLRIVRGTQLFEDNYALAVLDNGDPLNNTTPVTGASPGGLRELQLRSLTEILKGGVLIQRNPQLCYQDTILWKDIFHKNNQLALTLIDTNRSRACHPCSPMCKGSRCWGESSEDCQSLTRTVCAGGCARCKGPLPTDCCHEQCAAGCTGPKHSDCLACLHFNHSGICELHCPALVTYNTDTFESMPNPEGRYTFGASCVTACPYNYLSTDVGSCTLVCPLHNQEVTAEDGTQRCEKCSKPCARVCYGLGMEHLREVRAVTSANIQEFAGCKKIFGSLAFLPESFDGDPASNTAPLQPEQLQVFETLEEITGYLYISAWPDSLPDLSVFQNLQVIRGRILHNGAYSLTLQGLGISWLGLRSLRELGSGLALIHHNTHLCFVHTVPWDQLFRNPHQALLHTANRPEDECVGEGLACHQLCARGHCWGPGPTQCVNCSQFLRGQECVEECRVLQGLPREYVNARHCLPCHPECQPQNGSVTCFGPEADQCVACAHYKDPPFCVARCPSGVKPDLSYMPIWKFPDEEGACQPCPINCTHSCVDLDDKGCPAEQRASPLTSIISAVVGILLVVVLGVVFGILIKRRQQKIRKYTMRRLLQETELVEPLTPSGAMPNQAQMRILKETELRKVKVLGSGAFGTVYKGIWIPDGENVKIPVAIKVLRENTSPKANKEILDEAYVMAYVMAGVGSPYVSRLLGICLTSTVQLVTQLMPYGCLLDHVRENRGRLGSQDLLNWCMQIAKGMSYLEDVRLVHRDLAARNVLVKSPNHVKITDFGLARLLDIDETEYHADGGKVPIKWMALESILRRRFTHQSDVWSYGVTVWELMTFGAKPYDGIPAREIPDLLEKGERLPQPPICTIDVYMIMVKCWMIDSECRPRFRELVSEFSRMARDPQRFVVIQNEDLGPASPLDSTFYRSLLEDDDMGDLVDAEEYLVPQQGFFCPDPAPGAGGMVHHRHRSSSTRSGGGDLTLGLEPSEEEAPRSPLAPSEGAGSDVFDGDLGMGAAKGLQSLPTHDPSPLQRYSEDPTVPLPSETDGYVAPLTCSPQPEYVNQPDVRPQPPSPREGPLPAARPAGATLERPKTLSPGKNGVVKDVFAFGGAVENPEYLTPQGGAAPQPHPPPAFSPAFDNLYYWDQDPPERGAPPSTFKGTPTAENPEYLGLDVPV
Chain of EGFR(D770_N771insSVD) expressing Ba/F3 stable cell line (P00533 with tags, fused parts or gaps DUP768-770): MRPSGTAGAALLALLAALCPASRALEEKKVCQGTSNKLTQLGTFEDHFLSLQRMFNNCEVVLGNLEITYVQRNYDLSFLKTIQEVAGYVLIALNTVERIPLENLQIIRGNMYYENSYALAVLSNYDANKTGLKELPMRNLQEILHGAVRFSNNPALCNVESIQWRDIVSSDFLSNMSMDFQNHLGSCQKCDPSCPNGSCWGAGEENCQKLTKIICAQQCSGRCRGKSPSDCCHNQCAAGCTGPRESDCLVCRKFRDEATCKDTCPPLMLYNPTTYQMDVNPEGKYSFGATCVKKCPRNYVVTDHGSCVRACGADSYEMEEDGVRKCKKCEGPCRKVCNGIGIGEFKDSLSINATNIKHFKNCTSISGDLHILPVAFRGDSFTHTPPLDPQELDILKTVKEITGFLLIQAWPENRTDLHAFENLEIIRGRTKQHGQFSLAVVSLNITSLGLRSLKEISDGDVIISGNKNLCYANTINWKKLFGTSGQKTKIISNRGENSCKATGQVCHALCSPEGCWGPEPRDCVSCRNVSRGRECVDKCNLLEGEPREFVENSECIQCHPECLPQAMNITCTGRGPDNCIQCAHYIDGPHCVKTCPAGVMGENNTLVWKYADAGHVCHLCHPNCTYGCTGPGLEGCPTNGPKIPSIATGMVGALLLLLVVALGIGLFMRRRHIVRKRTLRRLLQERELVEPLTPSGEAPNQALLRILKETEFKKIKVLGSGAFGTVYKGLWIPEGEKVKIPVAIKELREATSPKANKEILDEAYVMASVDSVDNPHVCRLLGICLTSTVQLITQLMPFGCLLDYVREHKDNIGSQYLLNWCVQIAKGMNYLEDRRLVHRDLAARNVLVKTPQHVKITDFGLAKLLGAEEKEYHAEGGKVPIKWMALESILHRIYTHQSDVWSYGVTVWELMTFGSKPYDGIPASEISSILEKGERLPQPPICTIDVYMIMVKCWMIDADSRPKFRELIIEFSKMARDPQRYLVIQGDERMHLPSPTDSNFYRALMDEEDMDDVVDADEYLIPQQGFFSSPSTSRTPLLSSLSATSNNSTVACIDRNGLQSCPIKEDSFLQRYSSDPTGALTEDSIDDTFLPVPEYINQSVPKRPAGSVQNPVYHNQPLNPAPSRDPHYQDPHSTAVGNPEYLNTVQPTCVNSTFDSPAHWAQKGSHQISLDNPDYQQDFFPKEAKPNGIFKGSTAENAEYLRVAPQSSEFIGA
Chain of EGFR (A767_dupASV) expressing Ba/F3 stable cell line (P00533 with tags, fused parts or gaps DUP767-769): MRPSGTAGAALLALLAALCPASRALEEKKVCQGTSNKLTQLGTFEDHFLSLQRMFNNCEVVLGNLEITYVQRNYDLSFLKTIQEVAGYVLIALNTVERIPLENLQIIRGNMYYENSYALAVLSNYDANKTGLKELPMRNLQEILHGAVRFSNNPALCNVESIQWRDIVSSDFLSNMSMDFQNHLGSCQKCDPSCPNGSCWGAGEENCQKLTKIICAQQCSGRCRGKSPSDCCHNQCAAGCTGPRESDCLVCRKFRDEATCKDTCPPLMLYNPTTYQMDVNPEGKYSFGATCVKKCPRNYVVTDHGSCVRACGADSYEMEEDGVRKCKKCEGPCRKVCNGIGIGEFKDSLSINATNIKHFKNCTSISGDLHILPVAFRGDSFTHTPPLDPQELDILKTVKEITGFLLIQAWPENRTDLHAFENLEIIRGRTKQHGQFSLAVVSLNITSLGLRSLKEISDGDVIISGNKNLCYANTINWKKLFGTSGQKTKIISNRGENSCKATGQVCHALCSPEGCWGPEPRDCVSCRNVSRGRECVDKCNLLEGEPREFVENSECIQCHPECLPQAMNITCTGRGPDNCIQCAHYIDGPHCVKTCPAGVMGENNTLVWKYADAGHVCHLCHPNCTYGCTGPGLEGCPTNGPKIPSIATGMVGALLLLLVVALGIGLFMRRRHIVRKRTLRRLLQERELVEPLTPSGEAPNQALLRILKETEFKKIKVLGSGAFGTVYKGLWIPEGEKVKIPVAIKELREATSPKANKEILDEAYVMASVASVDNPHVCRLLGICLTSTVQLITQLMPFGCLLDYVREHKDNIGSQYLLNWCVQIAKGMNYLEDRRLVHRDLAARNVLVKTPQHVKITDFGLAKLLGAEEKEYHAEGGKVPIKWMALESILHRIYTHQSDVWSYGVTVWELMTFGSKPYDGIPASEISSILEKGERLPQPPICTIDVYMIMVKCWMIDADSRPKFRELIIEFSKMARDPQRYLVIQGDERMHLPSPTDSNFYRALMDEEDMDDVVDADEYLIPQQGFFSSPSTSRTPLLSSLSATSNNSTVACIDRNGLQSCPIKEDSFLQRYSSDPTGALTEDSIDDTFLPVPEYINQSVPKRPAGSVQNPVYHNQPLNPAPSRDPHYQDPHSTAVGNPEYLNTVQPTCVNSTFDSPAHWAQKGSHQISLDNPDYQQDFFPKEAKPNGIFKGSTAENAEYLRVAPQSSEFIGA

Consider `C=CC(=O)Nc1ccc(F)c(Nc2nc(Nc3cnn(C)c3)ncc2-c2cc(F)c(C(F)(F)F)c(F)c2)c1` [Compound 20, N-(3-((5-(3,5-difluoro-4-(trifluoromethyl)phenyl)-2-((1-methyl-1H-pyrazol-4-yl)amino)pyrimidin-4-yl)amino)-4-fluorophenyl)acrylamide trifluoroacetate], for which the concentration for half-maximal inhibition (IC50) in assay [1] was found to be 13 nM. Moreover, the GI50 was found to be 164 nM in assay [2] and 61 nM in assay [3].

Take `C=CC(=O)Nc1ccc(F)c(Nc2nc(Nc3cnn(C)c3)ncc2-c2cnc(C(F)(F)F)c(F)c2)c1` [Compound 61, N-(4-fluoro-3-((5-(5-fluoro-6-(trifluoromethyl)pyridin-3-yl)-2-((l-methyl-1H-pyrazol-4-yl)amino)pyrimidin-4-yl)amino)phenyl)acrylamide]: the results for the GI50 in assay [2] and in assay [3] were 37 nM and 11 nM, respectively.

With `O=C(O)C(F)(F)F.[2H]C([2H])([2H])n1cc(Nc2ncc(-c3cnc(F)c(F)c3)c(Nc3cc(NC(=O)C=C)ccc3F)n2)cn1` [Compound 101, N-(3-((5-(5,6-difluoropyridin-3-yl)-2-((1-(methyl-d3)-1H-pyrazol-4-yl)amino)pyrimidin-4-yl)amino)-4-fluorophenyl)acrylamide], the GI50 in assay [4] was 15 nM.

With `C=CC(=O)Nc1ccc(F)c(Nc2nc(Nc3cnn(C)c3)ncc2-c2ccc(F)cc2C(F)(F)F)c1` [Compound 107, N-(4-fluoro-3-((5-(4-fluoro-2-(trifluoromethyl)phenyl)-2-((1-methyl-1H-pyrazol-4-yl)amino)pyrimidin-4-yl)amino)phenyl)acrylamide], the 50% inhibitory concentration (IC50) in assay [1] was found to be 3130 nM. Further, the GI50 in assay [2] is 7340 nM.

With `C=CC(=O)Nc1ccc(F)c(Nc2nc(Nc3cn(C)nc3Cl)ncc2-c2ccc(OC)c(OC)c2)c1` [Compound 110, N-(3-((2-((3-chloro-1-methyl-1H-pyrazol-4-yl)amino)-5-(3,4-dimethoxyphenyl)pyrimidin-4-yl)amino)-4-fluorophenyl)acrylamide], the IC50 in assay [1] is 819 nM. In addition, the GI50 in assay [2] turned out to be 5780 nM.

On to `C=CC(=O)Nc1ccc(F)c(Nc2nc(Nc3cnn(C)c3)ncc2-c2ccc3c(c2)OCCO3)c1` [Compound 111, N-(3-((5-(2,3-dihydrobenzo[b][1,4]dioxin-6-yl)-2-((1-methyl-1H-pyrazol-4-yl)amino)pyrimidin-4-yl)amino)-4-fluorophenyl)acrylamide], for which the half-inhibitory concentration (IC50) in assay [1] came out at 164 nM. Besides, in assay [2], the GI50 was determined as 1080 nM.

As for `C=CC(=O)Nc1ccc(F)c(Nc2nc(Nc3cnn(C)c3)ncc2-c2ccc(Br)cc2F)c1` [Compound 112, N-(3-((5-(4-bromo-2-fluorophenyl)-2-((1-methyl-1H-pyrazol-4-yl)amino)pyrimidin-4-yl)amino)-4-fluorophenyl)acrylamide], the IC50 in assay [1] amounted to 497 nM. In addition, the GI50 in assay [2] amounted to 923 nM.

As to `C=CC(=O)Nc1ccc(F)c(Nc2nc(Nc3cnn(C)c3)ncc2-c2ccc3c(c2)OC(C)(C)O3)c1` [Compound 114, N-(3-((5-(2,2-dimethylbenzo[d][1,3]dioxol-5-yl)-2-((1-methyl-1H-pyrazol-4-yl)amino)pyrimidin-4-yl)amino)-4-fluorophenyl)acrylamide], the IC50 in assay [1] was 77 nM. The GI50 in assay [2] was determined as 4570 nM.

For `C=CC(=O)Nc1ccc(F)c(Nc2nc(Nc3cnn(C)c3)ncc2-c2cc(OC)cc(OC)c2)c1` [Compound 116, N-(3-((5-(3,5-dimethoxyphenyl)-2-((1-methyl-1H-pyrazol-4-yl)amino)pyrimidin-4-yl)amino)-4-fluorophenyl)acrylamide], in assay [1], the concentration for half-maximal inhibition (IC50) came out at 3520 nM. Also, in assay [2], the GI50 was more than 10000 nM.

Consider `C=CC(=O)Nc1ccc(F)c(Nc2nc(Nc3cnn(C)c3)ncc2-c2ccc(Br)c(C(F)F)c2)c1` [Compound 118, N-(3-((5-(4-bromo-3-(difluoromethyl)phenyl)-2-((1-methyl-1H-pyrazol-4-yl)amino)pyrimidin-4-yl)amino)-4-fluorophenyl)acrylamide], for which, in assay [1], the IC50 worked out at 215 nM. Further, the GI50 in assay [2] is 352 nM.

As to `C=CC(=O)Nc1ccc(F)c(Nc2nc(Nc3cnn(C)c3)ncc2-c2ccc(Br)c(N(C)C)c2)c1` [Compound 119, N-(3-((5-(4-bromo-3-(dimethylamino)phenyl)-2-((1-methyl-1H-pyrazol-4-yl)amino)pyrimidin-4-yl)amino)-4-fluorophenyl)acrylamide], in assay [1], the 50% inhibitory concentration (IC50) worked out at 1160 nM. Further, in assay [2], the GI50 worked out at 5200 nM.

In the case of `C=CC(=O)Nc1ccc(F)c(Nc2nc(Nc3cnn(C)c3)ncc2-c2cc(F)cc(N3CCC3)c2)c1` [Compound 120, N-(3-((5-(3-(azetidin-1-yl)-5-fluorophenyl)-2-((1-methyl-1H-pyrazol-4-yl)amino)pyrimidin-4-yl)amino)-4-fluorophenyl)acrylamide], in assay [1], the IC50 was found to be 9280 nM. Further, the GI50 in assay [2] is more than 10000 nM.

Consider `C=CC(=O)Nc1ccc(F)c(Nc2nc(Nc3cnn(C)c3)ncc2-c2cc(F)cc(N3CCCC3)c2)c1` [Compound 121, N-(4-fluoro-3-((5-(3-fluoro-5-(pyrrolidin-1-yl)phenyl)-2-((1-methyl-1H-pyrazol-4-yl)amino)pyrimidin-4-yl)amino)phenyl)acrylamide], for which the IC50 in assay [1] is more than 10000 nM. In addition, in assay [2], the GI50 is more than 10000 nM.

In the case of `C=CC(=O)Nc1ccc(F)c(Nc2nc(Nc3cnn(C)c3)ncc2-c2ccc(OCc3cccc(F)c3)c(Cl)c2)c1` [Compound 122, N-{3-[(5-{3-chloro-4-[(3-fluorophenyl)methoxy]phenyl}-2-[(1-methyl-1H-pyrazol-4-yl)amino]pyrimidin-4-yl)amino]-4-fluorophenyl}prop-2-enamide], the IC50 in assay [1] stood at 290 nM. Moreover, the GI50 in assay [2] worked out at 669 nM.

In the case of `C=CC(=O)Nc1ccc(F)c(Nc2nc(Nc3cnn(C)c3)ncc2-c2cc(F)cc(OC(C)C)c2)c1` [Compound 129, N-(4-fluoro-3-((5-(3-fluoro-5-isopropoxyphenyl)-2-((1-methyl-1H-pyrazol-4-yl)amino)pyrimidin-4-yl)amino)phenyl)acrylamide], the half-maximal inhibitory concentration (IC50) in assay [1] was more than 10000 nM. In assay [2], the GI50 was more than 10000 nM.

Regarding `C=CC(=O)Nc1ccc(F)c(Nc2nc(Nc3cnn(C)c3)ncc2-c2cc(F)cc(OCC3CC3)c2)c1` [Compound 130, N-(3-((5-(3-(cyclopropylmethoxy)-5-fluorophenyl)-2-((1-methyl-1H-pyrazol-4-yl)amino)pyrimidin-4-yl)amino)-4-fluorophenyl)acrylamide], the IC50 in assay [1] was more than 10000 nM. Moreover, the GI50 in assay [2] was more than 10000 nM.

As to `C=CC(=O)Nc1ccc(F)c(Nc2nc(Nc3cnn(C)c3)ncc2-c2ccc(Br)c(OC)c2)c1` [Compound 134, N-(3-((5-(4-bromo-3-methoxyphenyl)-2-((1-methyl-1H-pyrazol-4-yl)amino)pyrimidin-4-yl)amino)-4-fluorophenyl)acrylamide], the IC50 in assay [1] was determined as 238 nM. In assay [2], the GI50 was determined as 453 nM.

As for `Cn1cc(Nc2ncc(-c3ccc(Br)c(F)c3)c(Nc3cc(NC(=O)/C=C/CN4CCCCC4)ccc3F)n2)cn1` [Compound 142, (E)-N-(3-((5-(4-bromo-3-fluorophenyl)-2-((1-methyl-1H-pyrazol-4-yl)amino)pyrimidin-4-yl)amino)-4-fluorophenyl)-4-(piperidin-1-yl)but-2-enamide], the 50% inhibitory concentration (IC50) in assay [1] came out at 301 nM. For the same compound, the GI50 in assay [2] is 738 nM.

On to `COc1cc(F)cc(-c2cnc(Nc3cnn(C)c3)nc2Nc2cc(NC(=O)/C=C/CN(C)C)ccc2F)c1` [Compound 144, (E)-4-(dimethylamino)-N-(4-fluoro-3-((5-(3-fluoro-5-methoxyphenyl)-2-((1-methyl-1H-pyrazol-4-yl)amino)pyrimidin-4-yl)amino)phenyl)but-2-enamide], for which the IC50 in assay [1] worked out at 4880 nM. Moreover, the GI50 in assay [2] is 970 nM.

`[2H]c1ccc(NC(=O)C=C)cc1Nc1nc(Nc2cnn(C)c2)ncc1-c1cc(F)cc(OC)c1` [Compound 145, N-(3-((5-(3-fluoro-5-methoxyphenyl)-2-((1-methyl-1H-pyrazol-4-yl)amino)pyrimidin-4-yl)amino)phenyl-4-d)acrylamide]: the IC50 in assay [1] is 388 nM. The GI50 in assay [2] is 264 nM.

As to `C=CC(=O)Nc1cccc(Nc2nc(Nc3cnn(C)c3)ncc2-c2cc(F)c(F)c(F)c2)c1` [Compound 148, N-(3-((2-((1-methyl-1H-pyrazol-4-yl)amino)-5-(3,4,5-trifluorophenyl)pyrimidin-4-yl)amino)phenyl)acrylamide], the IC50 in assay [1] amounted to 29 nM. For the same compound, the GI50 is 10 nM in assay [4] and 45 nM in assay [2].

Regarding `C=CC(=O)Nc1ccc(F)c(Nc2nc(Nc3cnn(C)c3)ncc2-c2cc(F)c(N(C)C)c(F)c2)c1` [Compound 156, N-(3-((5-(4-(dimethylamino)-3,5-difluorophenyl)-2-((1-methyl-1H-pyrazol-4-yl)amino)pyrimidin-4-yl)amino)-4-fluorophenyl)acrylamide], in assay [1], the half-inhibitory concentration (IC50) worked out at 19 nM. For the same compound, in assay [2], the GI50 is 309 nM.
